The record followed here is the NIST ThermoML archive (doi:10.1016/j.fluid.2007.07.023).

By mass density is commonly meant mass per unit of volume. What is called refractive index is the speed of light in vacuum divided by its phase velocity in the sample.

For series [1] the following is noted: 101.33 kPa, Liquid.
A short description of series [2]: refractive index (Na D-line) (dimensionless). The settings on record: 101.33 kPa, Liquid, Standard Abbe refractometry.

SMILES strings stand for the structures. ± gives the expanded uncertainty stated by the source.

Take `Nc1ccccc1` [aniline]: in series [1] (293.15 K), the mass density is on record as 1021.72 ± 1.6 kg/m3. Also, the refractive index in series [2] (293.15 K) is 1.5962 ± 0.0007.

As to `NC1CCCCC1` [cyclohexylamine], the mass density in series [1] (303.15 K) is 858.2 ± 0.91 kg/m3. Also, the refractive index in series [2] (288.15 K) is reported as 1.4624 ± 0.0007.

In the case of `CCCCCCCC` [octane], the mass density in series [1] (298.15 K) was found to be 698.49 ± 0.71 kg/m3. In addition, the refractive index in series [2] (298.15 K) is recorded as 1.3946 ± 0.0007.

`Cc1ccccc1` [toluene]: in series [1] (293.15 K), the mass density is reported as 866.78 ± 0.89 kg/m3. Also, the refractive index in series [2] (293.15 K) was 1.496 ± 0.0007.
